The source of these data is PMC4632503, “Targeting of Helicobacter pylori thymidylate synthase ThyX by non-mitotoxic hydroxy-naphthoquinones” (Open Biology, 2015).

One data set addresses T1, HpThyX (Helicobacter pylori, UniProt O26061).
T1 construct: His6; made in house; host or cells: Escherichia coli BL21 (plasmid pGL2, pBAD promoter)
The experiment in a line: tritium release (deprotonation) assay of [5-3H]dUMP. The note with it: for remaining activity at 100 µM: 20 min, read-out: inhibition against ThyX (% remaining activity relative to control). It is filed as biochemical. The protocol:
HpThyX activity was assessed by measuring either deprotonation of [5-^3H]dUMP or NAPDH oxidation activities.
In the tritium release (deprotonation) assays, typical reactions contained 10 mM MgCl2, 10% (v/v) glycerol, 500 µM FAD, 2 mM NADPH, 1 mM CH2H4Folate and 10 mM β-mercaptoethanol in 50 mM HEPES (pH 8). Different concentrations of dUMP were also included in the reaction mixtures. The specific activity of tritiated [5-^3H]dUMP (diammonium salt) stock was 15–30 Ci mmol^−1 (Moravek Biochemicals, CA, USA). 2-OH-1,4-NQ derivatives were prepared at 100 µM in 1% DMSO. Reactions were initiated by adding the enzyme (10 µM) and were stopped after 20 min incubation at 37°C.

The next data set concerns H. pylori strain 26695. Nature of the data set: MIC, broth microdilution test, strain 26695. The class given is cell-based. The note with it: Helicobacter pylori, 26695, 24 h, read-out: minimal inhibitory concentration (MIC) strain 26695. The procedure:
(§1) The in vitro anti-bacterial activity of 2-OH-1,4-NQ compounds was assessed against the 26695 and SS1 strains of H. pylori. DMSO was used as control in all experiments.
(§2) Disc diffusion tests were performed in triplicate, including a DMSO-only control on each plate, as specified in the electronic supplementary material. Minimal inhibitory concentrations (MICs) were determined using a broth microdilution test in 24-well microtitre plates. For test inocula, an overnight preculture of H. pylori strains 26695 and SS1 was diluted to an OD600 of approximately 0.1 and 0.5 ml of this suspension was transferred to each well. Ten microlitres of twofold serial dilutions of each compound in DMSO, ranging in concentration from 0.625 to 20 µg ml^−1, were added and the covered plates were incubated for 24 h at 37°C with orbital shaking at 140 r.p.m. under microaerophilic conditions. The MIC was determined as the lowest compound concentration resulting in full growth inhibition after 24 h of incubation. All the tests were done in triplicate, including cell-free and DMSO-only controls.
(In general: In broth dilution the organism is exposed to a series of concentrations in liquid medium.)

A further data set has as its system H. pylori strain SS1. The experiment in a line: MIC, broth microdilution test, strain SS1. It is filed as cell-based. The following applies: Helicobacter pylori, 24 h, read-out: minimal inhibitory concentration (MIC) strain SS1. The protocol:
as §1, §2

Data set [1] deals with AGS cells. The experiment in a line: cytotoxicity, LDH release. It is filed as cell-based, human. The procedure: Cytotoxicity of the 2-OH-1,4-NQ derivatives was assessed by measuring lactate dehydrogenase (LDH) release following manufacturer's instructions (Cytotoxicity Detection Kit; Roche Applied Sciences). Briefly, AGS cells (human gastric adenocarcinoma cell line; ATCC Catalog no. CRL-1739TM) were cultured in Ham's F-12 K medium containing 1% of FBS. A total of 3 × 10^4 cells were added per well in a sterile 96-well tissue culture plate. Cells were then treated with different doses of 2-OH-1,4-NQ compounds ranging from 0.78 to 50 μg ml^−1. After a 24 h incubation at 37°C (5% CO2, 90% humidity), the microplates were centrifuged at 250g for 10 min, and the supernatants were carefully removed and transferred into optically clear 96-well microplates (Greiner Bio-One). The dye solution containing iodotetrazolium chloride and sodium lactate was then added to each well to quantify the amount of LDH released into the extracellular medium. LDH was quantified by measuring the A490 using a PowerWave Microplate Spectrophotometer (BioTek).

In data set [2] the test system is AGS cells. The experiment in a line: mitotoxicity, resazurin reduction. The class given is cell-based, human. The note with it: for mitotoxicity: 0.78 to 50 μg ml^−1, 4 h treatment. The protocol:
Mitochondrial toxicity (mitotoxicity) was assessed by measuring resazurin (7-hydroxy-3H-phenoxazin-3-one 10-oxide) reduction by following absorption changes at 570 nm (Mitochondrial Viability Assay; Abcam). Resazurin is an indicator dye that reports on oxidation–reduction reactions taking place in the mitochondria of living cells. AGS cells (≅2.5 × 10^5cells well^−1) cultured in a DMEM galactose/glutamine-supplemented medium were seeded in sterile white-walled 96-well clear-bottom microplates and treated for 4 h with different doses of 2-OH-1,4-NQ compounds ranging from 0.78 to 50 μg ml^−1. Addition of the stain solution was followed by a further 4 h incubation at 37°C (5% CO2, 90% humidity) and A570 was measured. Rotenone, an inhibitor of the mitochondrial respiratory chain complex I, was used as a positive control.
In general terms: Resazurin is reduced to fluorescent resorufin, in cell work by metabolically active cells.

A short description of data set [3]: tolerance of orogastric treatment in infected mice. The note with it: orogastric three times a day, 0.375 mg mouse day^−1, one week. The class given is in vivo, NMRI mice. The protocol:
NMRI-specific pathogen-free mice (Charles River Laboratories) were orogastrically inoculated with 10^8 CFU of the H. pylori mouse-adapted strain SS1, prepared in 100 μl of peptone broth. Four groups of six to eight mice were infected by H. pylori strain SS1. Earlier experiments have established that after one week, colonization of mice is fully established. A negative control group of five mice was inoculated with peptone broth alone and was not colonized by H. pylori. One week after infection, three groups of mice were treated orogastrically three times a day with 500 µl of either compound 010-C, 010-E or 010-I dissolved in 2% β-cyclodextrin at 0.25 mg ml^−1 (0.375 mg mouse d^−1) during one week. As a control, the fourth group of mice was treated orogastrically three times a day by the same amount of 2% β-cyclodextrin (17.6 mM), the vehicle of the compounds. […] This average size is in agreement with the average size of β-cyclodextrin particles that self-aggregate in water at a concentration of 12 mM [39]. After treatment, viable H. pylori cells, colonizing the mouse stomach, were enumerated by culture of serial dilutions of homogenized tissue on blood agar plates containing bacitracin (200 μg ml^−1) and nalidixic acid (10 μg ml^−1) as in [40].

Setting [4] is: semi-quantitative deprotonation assay, remaining activity, lower = stronger inhibition.

Molecules are shown by their SMILES. Read-outs that look alike come from different tables or passages of the source.

T1 sequence (O26061 whole entry): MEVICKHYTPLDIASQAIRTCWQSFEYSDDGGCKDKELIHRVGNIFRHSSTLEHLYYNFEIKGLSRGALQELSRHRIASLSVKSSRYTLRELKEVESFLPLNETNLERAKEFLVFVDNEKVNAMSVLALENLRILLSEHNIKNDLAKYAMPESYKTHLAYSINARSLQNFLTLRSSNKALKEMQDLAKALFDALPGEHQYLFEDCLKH

As usually defined, the remaining activity is what remains of the control signal, in per cent. Turning to `O=C1C(O)=C(Cc2cc(F)cc(F)c2)C(=O)c2ccccc21` [010-B], the remaining activity at 100 µM at HpThyX (setting [4]) was 74.3%. The MIC was determined as 10 µg/mL in the data set with H. pylori strain 26695 (full growth inhibition), 33.3 µM in the data set on H. pylori strain 26695 (value in brackets), 10 µg/mL with H. pylori strain SS1 (full growth inhibition) and 33.3 µM in the data set on H. pylori strain SS1 (value in brackets).
As for `O=C1C(O)=C(Cc2ccc(-c3ccc(Cl)cc3)cc2)C(=O)c2ccccc21` [007-B], the remaining activity at 100 µM on HpThyX (setting [4]) worked out at 60.2%. Besides, the MIC in the data set on H. pylori strain 26695 (full growth inhibition) is 10 µg/mL; in the data set with H. pylori strain 26695 (value in brackets), 26.7 µM; in the data set on H. pylori strain SS1 (full growth inhibition), 10 µg/mL; with H. pylori strain SS1 (value in brackets) it was 26.7 µM.
Take `O=C1C(O)=C(Cc2ccc(F)c(Cl)c2)C(=O)c2ccccc21` [010-F]: the remaining activity at 100 µM on HpThyX (setting [4]) came to 74.5%. The MIC turned out to be 10 µg/mL in the data set on H. pylori strain 26695 (full growth inhibition), 31.6 µM with H. pylori strain 26695 (value in brackets), 5 µg/mL with H. pylori strain SS1 (full growth inhibition) and 15.8 µM with H. pylori strain SS1 (value in brackets).
Regarding `O=C1C(O)=C(Cc2ccc(Cl)cc2)C(=O)c2ccccc21` [010-A], the remaining activity at 100 µM at HpThyX (setting [4]) worked out at 49.5%. The MIC in the data set with H. pylori strain 26695 (full growth inhibition) worked out at 10 µg/mL; in the data set with H. pylori strain 26695 (value in brackets) it was 33.5 µM; in the data set on H. pylori strain SS1 (full growth inhibition) it was 5 µg/mL; in the data set with H. pylori strain SS1 (value in brackets), 16.7 µM.
As for `O=C1C(O)=C(Cc2ccc(F)c(C(F)(F)F)c2)C(=O)c2ccccc21` [010-E], on HpThyX (setting [4]), the remaining activity at 100 µM was determined as 77.7%. Besides, the dTMP-forming activity result at HpThyX (quantitative tritium release assay, 100 μM compound, 10 μM ThyX enzyme) is listed as “suppressed the dTMP-forming activity”. Further, the MIC came out at 5 µg/mL with H. pylori strain 26695 (full growth inhibition), 14.3 µM in the data set on H. pylori strain 26695 (value in brackets), 5 µg/mL with H. pylori strain SS1 (full growth inhibition) and 14.3 µM in the data set with H. pylori strain SS1 (value in brackets). Moreover, the cytotoxicity entry with AGS cells [1] (0.78 to 50 μg ml^−1, 24 h) is reported as “non-cytotoxic”. The mitotoxicity entry with AGS cells [2] was “non-mitotoxic”. Moreover, the “effect on mitochondrial metabolism” value in the data set on AGS cells [2] (low concentrations, resazurin reduction) is “activated the mitochondrial metabolism”. The tolerance in mice result in data set [3] is “tolerated in mice”. Besides, the “effect on body or stomach weight” value in data set [3] (data not shown) is recorded as “None of the aforementioned treatments affected either the body or stomach weight”.
Regarding `O=C1C(O)=C(Cc2ccc(C(F)(F)F)cc2)C(=O)c2ccccc21` [007-F], the remaining activity at 100 µM at HpThyX amounted to 60.6%. The MIC in the data set on H. pylori strain 26695 (full growth inhibition) turned out to be 5 µg/mL; in the data set on H. pylori strain 26695 (value in brackets), 15.1 µM; in the data set with H. pylori strain SS1 (full growth inhibition), 10 µg/mL; in the data set on H. pylori strain SS1 (value in brackets) it was 15.1 µM.
Take `O=C1C(O)=C(Cc2ccc(OC(F)(F)F)cc2)C(=O)c2ccccc21` [007-C]: the remaining activity at 100 µM on HpThyX came to 62.5%. Further, the MIC with H. pylori strain 26695 (full growth inhibition) and with H. pylori strain SS1 (full growth inhibition) was 5 µg/mL in each case.
Turning to `O=C1C(O)=C(Cc2ccc(Oc3ccccc3)cc2)C(=O)c2ccccc21` [007-G], on HpThyX (setting [4]), the remaining activity at 100 µM stood at 61.8%. Further, the MIC with H. pylori strain 26695 (full growth inhibition) turned out to be 20 µg/mL; with H. pylori strain 26695 (value in brackets) it was 56.2 µM; in the data set on H. pylori strain SS1 (full growth inhibition), 5 µg/mL; in the data set with H. pylori strain SS1 (value in brackets), 14 µM.
Consider `O=C1C(O)=C(Cc2ccc(F)cc2)C(=O)c2ccccc21` [007-E], for which, on HpThyX (setting [4]), the remaining activity at 100 µM is 66.3%. For the same compound, the MIC with H. pylori strain 26695 (full growth inhibition) is 10 µg/mL; in the data set on H. pylori strain 26695 (value in brackets), 35.4 µM; with H. pylori strain SS1 (full growth inhibition), 10 µg/mL; in the data set with H. pylori strain SS1 (value in brackets), 35.4 µM.
As for `O=C1C(O)=C(C=Cc2ccc(F)cc2)C(=O)c2ccccc21` [010-J], the remaining activity at 100 µM on HpThyX (setting [4]) stood at 49.7%. Besides, the MIC came to 2.5 µg/mL in the data set on H. pylori strain 26695 (full growth inhibition), 8.49 µM with H. pylori strain 26695 (value in brackets), 2.5 µg/mL with H. pylori strain SS1 (full growth inhibition) and 8.49 µM in the data set with H. pylori strain SS1 (value in brackets).
`CC(C)Oc1ccc(CC2=C(O)C(=O)c3ccccc3C2=O)cc1` [007-D]: the remaining activity at 100 µM on HpThyX (setting [4]) amounted to 45.7%. Also, the MIC was at least 20 µg/mL with H. pylori strain 26695 (full growth inhibition), at least 62 µM with H. pylori strain 26695 (value in brackets), 20 µg/mL in the data set on H. pylori strain SS1 (full growth inhibition) and 62 µM in the data set on H. pylori strain SS1 (value in brackets).
`COc1ccc(CC2=C(O)C(=O)c3ccccc3C2=O)cc1OC` [010-K]: at HpThyX (setting [4]), the remaining activity at 100 µM turned out to be 75.1%. Also, the MIC in the data set with H. pylori strain 26695 (full growth inhibition) was 20 µg/mL; in the data set on H. pylori strain 26695 (value in brackets), 61.7 µM; with H. pylori strain SS1 (full growth inhibition) it was 10 µg/mL; in the data set on H. pylori strain SS1 (value in brackets), 30.8 µM.
For `O=C1C(O)=C(Cc2cccs2)C(=O)c2ccccc21` [010-D] the same measures were 36.4%, 10 µg/mL, 37 µM, 10 µg/mL and 37 µM.
Take `COc1cc(CC2=C(O)C(=O)c3ccccc3C2=O)ccc1O` [010-H]: at HpThyX (setting [4]), the remaining activity at 100 µM stood at 57.8%. Also, the MIC in the data set on H. pylori strain 26695 (full growth inhibition) was found to be 20 µg/mL; in the data set with H. pylori strain 26695 (value in brackets) it was 64.5 µM; with H. pylori strain SS1 (full growth inhibition), 10 µg/mL; in the data set on H. pylori strain SS1 (value in brackets) it was 32.2 µM.
In the data set on AGS cells [1] (25 µg ml^−1, 24 h), `O=C1C(O)=C([C@H]2CC[C@H](c3ccc(Cl)cc3)CC2)C(=O)c2ccccc21` [atovaquone, 2-(trans-4-(4-chlorophenyl)cyclohexyl)-3-hydroxy-1,4-naphthoquinone, reference compound] returned a cytotoxic effect of 48 ± 5%. The mitotoxicity entry in the data set with AGS cells [2] is “targeted mitochondria”.
